Assay results: patent US11725011B2, “Bicyclic urea kinase inhibitors and uses thereof” (The Broad Institute, Inc., priority 2016, dated 2023)

Legend:
Details in all cases: 1 uM
SRPK1 = SRPK1 (Homo sapiens (Human), UniProt Q96SB4); experiment: KINOMEscan; assay type: binding
TTK = TTK (Homo sapiens (Human), UniProt P33981); experiment: KINOMEscan; assay type: binding
PRKCQ = PRKCQ (Homo sapiens (Human), UniProt Q04759); experiment: KINOMEscan; assay type: binding
CDK2 = CDK2 (Homo sapiens (Human), UniProt P24941); experiment: KINOMEscan; assay type: binding
TSSK1B = TSSK1B (Homo sapiens (Human), UniProt Q9BXA7); experiment: KINOMEscan; assay type: binding
RET = RET (Homo sapiens (Human), UniProt P07949); experiment: KINOMEscan; assay type: binding
EGFR (S752-I759del) = EGFR (S752-I759del) (Homo sapiens (Human), UniProt P00533, DEL752-759); experiment: KINOMEscan; assay type: binding
ERK5 = ERK5 (Homo sapiens (Human), UniProt Q13164); experiment: KINOMEscan; assay type: binding
PRKCI = PRKCI (Homo sapiens (Human), UniProt P41743); experiment: KINOMEscan; assay type: binding
[1] = target: ABL1 (Q252H)-phosphorylated (Homo sapiens (Human), UniProt P00519, Q252H); experiment: KINOMEscan; assay type: binding
BUB1 = BUB1 (Homo sapiens (Human), UniProt O43683); experiment: KINOMEscan; assay type: binding
CLK1 = CLK1 (Homo sapiens (Human), UniProt P49759); experiment: KINOMEscan; assay type: binding
CSNK2A1 = CSNK2A1 (Homo sapiens (Human), UniProt P68400); experiment: KINOMEscan; assay type: binding
RIOK1 = RIOK1 (Homo sapiens (Human), UniProt Q9BRS2); experiment: KINOMEscan; assay type: binding
CSNK2A2 = CSNK2A2 (Homo sapiens (Human), UniProt P19784); experiment: KINOMEscan; assay type: binding
TNK1 = TNK1 (Homo sapiens (Human), UniProt Q13470); experiment: KINOMEscan; assay type: binding
EPHA2 = EPHA2 (Homo sapiens (Human), UniProt P29317); experiment: KINOMEscan; assay type: binding
[2] = target: TYK2 (JH1domain-catalytic) (Homo sapiens (Human), UniProt P29597); experiment: KINOMEscan; assay type: binding
BMPR2 = BMPR2 (Homo sapiens (Human), UniProt Q13873); experiment: KINOMEscan; assay type: binding
[3] = target: RSK3 (Kin.Dom.2-C-terminal) (Homo sapiens (Human), UniProt Q15349); experiment: KINOMEscan; assay type: binding
PIK3CB = PIK3CB (Homo sapiens (Human), UniProt P42338); experiment: KINOMEscan; assay type: binding
KIT = KIT (Homo sapiens (Human), UniProt P10721); experiment: KINOMEscan; assay type: binding
MEK1 = MEK1 (Homo sapiens (Human), UniProt Q02750); experiment: KINOMEscan; assay type: binding
[4] = target: JAK3 (JH1domain-catalytic) (Homo sapiens (Human), UniProt P52333); experiment: KINOMEscan; assay type: binding
PKNB (M. tuberculosis) = PKNB (M. tuberculosis) (Mycobacterium tuberculosis (strain ATCC 25618 / H37Rv), UniProt P9WI81)
PIK3CA (E545K) = PIK3CA (E545K) (Homo sapiens (Human), UniProt P42336, E545K); experiment: KINOMEscan; assay type: binding
PRKD1 = PRKD1 (Homo sapiens (Human), UniProt Q15139); experiment: KINOMEscan; assay type: binding
JNK1 = JNK1 (Homo sapiens (Human), UniProt P45983); experiment: KINOMEscan; assay type: binding
FLT3 (N841I) = FLT3 (N841I) (Homo sapiens (Human), UniProt P36888, N841I); experiment: KINOMEscan; assay type: binding
IRAK3 = IRAK3 (Homo sapiens (Human), UniProt Q9Y616); experiment: KINOMEscan; assay type: binding
PIM3 = PIM3 (Homo sapiens (Human), UniProt Q86V86); experiment: KINOMEscan; assay type: binding
ALK (C1156Y) = ALK (C1156Y) (Homo sapiens (Human), UniProt Q9UM73, C1156Y); experiment: KINOMEscan; assay type: binding
AMPK-alpha2 = AMPK-alpha2 (Homo sapiens (Human), UniProt P54646); experiment: KINOMEscan; assay type: binding
AURKA = AURKA (Homo sapiens (Human), UniProt O14965); experiment: KINOMEscan; assay type: binding
IKK-epsilon = IKK-epsilon (Homo sapiens (Human), UniProt Q14164); experiment: KINOMEscan; assay type: binding
LZK = LZK (Homo sapiens (Human), UniProt O43283); experiment: KINOMEscan; assay type: binding
EGFR (L858R) = EGFR (L858R) (Homo sapiens (Human), UniProt P00533, L858R); experiment: KINOMEscan; assay type: binding
HIPK1 = HIPK1 (Homo sapiens (Human), UniProt Q86Z02); experiment: KINOMEscan; assay type: binding
EPHA1 = EPHA1 (Homo sapiens (Human), UniProt P21709); experiment: KINOMEscan; assay type: binding
LYN = LYN (Homo sapiens (Human), UniProt P07948); experiment: KINOMEscan; assay type: binding

Chain of TYK2 (JH1domain-catalytic) (P29597 897-1176): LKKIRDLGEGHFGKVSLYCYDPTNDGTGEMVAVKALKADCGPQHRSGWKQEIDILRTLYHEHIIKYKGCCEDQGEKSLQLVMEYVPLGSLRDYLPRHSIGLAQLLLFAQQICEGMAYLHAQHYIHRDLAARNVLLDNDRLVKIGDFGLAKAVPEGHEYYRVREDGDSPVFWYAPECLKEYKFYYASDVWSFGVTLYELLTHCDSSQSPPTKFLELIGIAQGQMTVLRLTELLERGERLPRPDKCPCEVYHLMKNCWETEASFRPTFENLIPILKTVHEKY
Chain of RET (P07949 29-1114): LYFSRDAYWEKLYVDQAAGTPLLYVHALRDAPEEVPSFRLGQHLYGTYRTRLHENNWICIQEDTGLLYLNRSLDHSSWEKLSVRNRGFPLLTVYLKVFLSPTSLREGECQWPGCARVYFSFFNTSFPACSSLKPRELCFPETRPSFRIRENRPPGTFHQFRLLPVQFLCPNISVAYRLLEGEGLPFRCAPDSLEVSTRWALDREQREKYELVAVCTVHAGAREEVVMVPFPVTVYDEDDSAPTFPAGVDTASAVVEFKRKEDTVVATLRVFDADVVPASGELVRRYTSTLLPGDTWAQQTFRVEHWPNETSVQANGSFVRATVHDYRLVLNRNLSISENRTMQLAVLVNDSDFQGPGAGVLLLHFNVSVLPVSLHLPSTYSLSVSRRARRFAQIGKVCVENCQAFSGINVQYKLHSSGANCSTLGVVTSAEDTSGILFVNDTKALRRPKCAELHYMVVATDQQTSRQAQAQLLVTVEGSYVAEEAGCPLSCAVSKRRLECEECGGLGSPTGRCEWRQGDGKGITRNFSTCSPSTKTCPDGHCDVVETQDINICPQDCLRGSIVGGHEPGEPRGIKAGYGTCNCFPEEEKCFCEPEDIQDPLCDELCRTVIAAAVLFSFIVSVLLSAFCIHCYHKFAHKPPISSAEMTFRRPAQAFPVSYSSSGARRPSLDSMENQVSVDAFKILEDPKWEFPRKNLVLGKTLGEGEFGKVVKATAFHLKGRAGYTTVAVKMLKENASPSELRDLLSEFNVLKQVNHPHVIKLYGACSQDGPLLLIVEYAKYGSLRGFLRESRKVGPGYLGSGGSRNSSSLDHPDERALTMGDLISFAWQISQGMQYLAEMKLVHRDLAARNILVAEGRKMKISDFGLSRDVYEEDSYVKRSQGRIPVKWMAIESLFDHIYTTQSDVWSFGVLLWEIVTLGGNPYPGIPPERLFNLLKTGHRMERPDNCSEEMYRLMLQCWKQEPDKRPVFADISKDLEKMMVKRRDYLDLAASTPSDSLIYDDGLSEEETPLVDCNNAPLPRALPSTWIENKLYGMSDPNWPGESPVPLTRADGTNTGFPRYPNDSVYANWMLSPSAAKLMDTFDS
Chain of RSK3 (Kin.Dom.2-C-terminal) (Q15349 415-672): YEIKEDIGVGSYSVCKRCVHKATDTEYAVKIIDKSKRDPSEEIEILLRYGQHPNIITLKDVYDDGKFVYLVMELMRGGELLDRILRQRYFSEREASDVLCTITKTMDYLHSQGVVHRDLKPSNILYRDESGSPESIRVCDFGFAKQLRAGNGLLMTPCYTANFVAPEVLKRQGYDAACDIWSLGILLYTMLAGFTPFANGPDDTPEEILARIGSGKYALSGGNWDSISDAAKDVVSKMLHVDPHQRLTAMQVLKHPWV
Chain of CLK1 (P49759 whole entry): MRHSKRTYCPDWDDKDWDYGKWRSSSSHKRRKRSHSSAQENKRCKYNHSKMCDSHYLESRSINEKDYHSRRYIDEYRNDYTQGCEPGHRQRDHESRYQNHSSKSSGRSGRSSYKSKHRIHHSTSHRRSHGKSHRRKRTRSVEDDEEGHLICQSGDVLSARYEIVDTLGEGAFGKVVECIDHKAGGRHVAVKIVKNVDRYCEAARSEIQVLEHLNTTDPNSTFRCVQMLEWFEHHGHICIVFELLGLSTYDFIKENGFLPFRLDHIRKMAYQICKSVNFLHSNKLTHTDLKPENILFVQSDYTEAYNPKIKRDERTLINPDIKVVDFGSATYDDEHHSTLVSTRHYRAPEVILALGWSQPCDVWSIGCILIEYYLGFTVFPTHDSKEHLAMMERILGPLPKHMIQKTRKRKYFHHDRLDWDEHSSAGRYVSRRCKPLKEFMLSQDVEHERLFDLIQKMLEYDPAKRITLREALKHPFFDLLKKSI
Chain of AURKA (O14965 whole entry): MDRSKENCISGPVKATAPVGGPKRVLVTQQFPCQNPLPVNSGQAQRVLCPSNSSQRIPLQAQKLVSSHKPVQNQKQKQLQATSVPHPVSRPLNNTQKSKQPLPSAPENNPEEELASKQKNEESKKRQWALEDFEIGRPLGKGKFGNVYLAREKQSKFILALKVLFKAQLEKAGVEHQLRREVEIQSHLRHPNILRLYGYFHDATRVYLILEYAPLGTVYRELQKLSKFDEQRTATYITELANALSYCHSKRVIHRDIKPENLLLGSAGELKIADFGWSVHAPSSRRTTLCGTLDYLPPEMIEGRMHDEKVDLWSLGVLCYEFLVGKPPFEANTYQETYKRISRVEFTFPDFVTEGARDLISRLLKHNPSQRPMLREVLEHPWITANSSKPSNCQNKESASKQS
Chain of PIK3CA (E545K) (P42336 whole entry E545K): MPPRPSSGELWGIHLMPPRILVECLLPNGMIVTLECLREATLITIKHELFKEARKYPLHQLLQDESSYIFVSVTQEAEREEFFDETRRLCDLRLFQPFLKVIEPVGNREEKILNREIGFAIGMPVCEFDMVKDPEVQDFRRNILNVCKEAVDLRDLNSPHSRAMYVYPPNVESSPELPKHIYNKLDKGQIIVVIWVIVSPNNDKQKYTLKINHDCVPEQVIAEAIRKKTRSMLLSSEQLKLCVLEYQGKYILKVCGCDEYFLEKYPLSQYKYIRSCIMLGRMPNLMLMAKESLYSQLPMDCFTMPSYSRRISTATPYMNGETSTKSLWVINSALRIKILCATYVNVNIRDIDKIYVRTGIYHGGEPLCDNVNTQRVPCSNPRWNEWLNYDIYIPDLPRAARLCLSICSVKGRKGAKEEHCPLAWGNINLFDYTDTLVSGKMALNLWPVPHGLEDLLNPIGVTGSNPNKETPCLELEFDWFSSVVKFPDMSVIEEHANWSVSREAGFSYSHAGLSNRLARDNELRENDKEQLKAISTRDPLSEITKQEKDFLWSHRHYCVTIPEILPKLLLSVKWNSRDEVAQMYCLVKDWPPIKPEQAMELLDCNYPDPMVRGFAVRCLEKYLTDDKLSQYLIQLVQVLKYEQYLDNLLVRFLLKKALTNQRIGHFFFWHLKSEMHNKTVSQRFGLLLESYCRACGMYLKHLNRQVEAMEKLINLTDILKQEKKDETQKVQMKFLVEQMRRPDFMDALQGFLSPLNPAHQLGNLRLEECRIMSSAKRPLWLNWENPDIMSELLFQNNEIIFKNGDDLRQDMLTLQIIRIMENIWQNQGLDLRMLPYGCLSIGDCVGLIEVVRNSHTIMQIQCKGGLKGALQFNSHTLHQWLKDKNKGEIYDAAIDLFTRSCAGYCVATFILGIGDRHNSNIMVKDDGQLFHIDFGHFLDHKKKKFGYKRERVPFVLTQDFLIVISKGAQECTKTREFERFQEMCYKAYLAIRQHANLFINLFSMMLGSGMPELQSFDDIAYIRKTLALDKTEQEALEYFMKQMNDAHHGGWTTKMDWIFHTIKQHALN
Chain of IRAK3 (Q9Y616 whole entry): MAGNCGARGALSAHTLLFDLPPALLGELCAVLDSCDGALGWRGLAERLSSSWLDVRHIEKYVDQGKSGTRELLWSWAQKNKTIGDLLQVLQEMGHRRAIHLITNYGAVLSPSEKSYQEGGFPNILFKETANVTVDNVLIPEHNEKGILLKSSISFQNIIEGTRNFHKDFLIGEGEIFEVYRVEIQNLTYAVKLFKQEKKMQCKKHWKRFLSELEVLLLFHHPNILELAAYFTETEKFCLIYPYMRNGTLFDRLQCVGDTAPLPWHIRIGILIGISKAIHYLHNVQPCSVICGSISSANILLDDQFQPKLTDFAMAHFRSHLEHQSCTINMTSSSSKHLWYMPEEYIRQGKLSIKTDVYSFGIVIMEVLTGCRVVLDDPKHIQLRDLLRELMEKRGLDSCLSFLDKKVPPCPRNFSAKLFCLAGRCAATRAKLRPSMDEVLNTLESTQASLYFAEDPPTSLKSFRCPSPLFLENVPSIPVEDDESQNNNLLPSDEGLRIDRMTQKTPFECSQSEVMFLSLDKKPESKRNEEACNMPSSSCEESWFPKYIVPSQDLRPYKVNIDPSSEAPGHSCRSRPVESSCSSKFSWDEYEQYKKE
Chain of IKK-epsilon (Q14164 whole entry): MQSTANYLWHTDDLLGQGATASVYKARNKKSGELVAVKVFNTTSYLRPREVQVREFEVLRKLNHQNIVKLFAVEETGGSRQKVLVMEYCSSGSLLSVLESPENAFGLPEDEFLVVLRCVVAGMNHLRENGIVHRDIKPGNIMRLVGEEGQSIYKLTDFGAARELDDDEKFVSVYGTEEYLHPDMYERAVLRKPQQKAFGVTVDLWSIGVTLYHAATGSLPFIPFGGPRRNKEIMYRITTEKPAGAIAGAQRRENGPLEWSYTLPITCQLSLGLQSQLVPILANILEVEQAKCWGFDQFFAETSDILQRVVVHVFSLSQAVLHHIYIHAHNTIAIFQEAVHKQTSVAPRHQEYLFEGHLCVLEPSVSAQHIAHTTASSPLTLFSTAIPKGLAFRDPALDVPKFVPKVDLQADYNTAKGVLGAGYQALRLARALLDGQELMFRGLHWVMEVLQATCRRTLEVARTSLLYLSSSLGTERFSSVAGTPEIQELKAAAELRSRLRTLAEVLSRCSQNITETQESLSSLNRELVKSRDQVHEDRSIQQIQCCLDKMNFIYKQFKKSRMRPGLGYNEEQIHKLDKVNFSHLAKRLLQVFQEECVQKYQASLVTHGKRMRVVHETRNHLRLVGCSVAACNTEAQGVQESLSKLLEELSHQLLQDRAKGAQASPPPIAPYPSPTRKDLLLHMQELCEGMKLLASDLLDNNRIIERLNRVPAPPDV

Q: What does the source list for `COc1ccc(N2C(=O)N(c3c(C)cccc3C)Cc3cnc(Nc4ccc(N5CCN(C)CC5)cc4)nc32)c(OC)c1` [HG-11-136-01]?
A: KINOMEscan SRPK1 (SRPK1): 16; KINOMEscan TTK (TTK): 47; KINOMEscan PRKCQ (PRKCQ): 80; KINOMEscan CDK2 (CDK2): 97; KINOMEscan TSSK1B (TSSK1B): 50; KINOMEscan RET (RET): 0; KINOMEscan EGFR (S752-I759del) (EGFR (S752-I759del)): 4.2; KINOMEscan ERK5 (ERK5): 84; KINOMEscan PRKCI (PRKCI): 63; KINOMEscan ABL1 (Q252H)-phosphorylated [1]: 0.25; KINOMEscan BUB1 (BUB1): 100; KINOMEscan CLK1 (CLK1): 19; KINOMEscan CSNK2A1 (CSNK2A1): 1.9; KINOMEscan RIOK1 (RIOK1): 9.2; KINOMEscan CSNK2A2 (CSNK2A2): 0.05; KINOMEscan TNK1 (TNK1): 0.9; KINOMEscan EPHA2 (EPHA2): 0.6; KINOMEscan TYK2 (JH1domain-catalytic) [2]: 5.6; KINOMEscan BMPR2 (BMPR2): 77; KINOMEscan RSK3 (Kin.Dom.2-C-terminal) [3]: 67; KINOMEscan PIK3CB (PIK3CB): 92; KINOMEscan KIT (KIT): 0; KINOMEscan MEK1 (MEK1): 0.55; KINOMEscan JAK3 (JH1domain-catalytic) [4]: 0; KINOMEscan PKNB (M. tuberculosis) (PKNB (M. tuberculosis)): 6.6; KINOMEscan PIK3CA (E545K) (PIK3CA (E545K)): 98; KINOMEscan PRKD1 (PRKD1): 3.6; KINOMEscan JNK1 (JNK1): 23; KINOMEscan FLT3 (N841I) (FLT3 (N841I)): 11; KINOMEscan IRAK3 (IRAK3): 38; KINOMEscan PIM3 (PIM3): 90; KINOMEscan ALK (C1156Y) (ALK (C1156Y)): 12; KINOMEscan AMPK-alpha2 (AMPK-alpha2): 30; KINOMEscan AURKA (AURKA): 0; KINOMEscan IKK-epsilon (IKK-epsilon): 47; KINOMEscan LZK (LZK): 4; KINOMEscan EGFR (L858R) (EGFR (L858R)): 0.1; KINOMEscan HIPK1 (HIPK1): 3.8; KINOMEscan EPHA1 (EPHA1): 0; KINOMEscan LYN (LYN): 0
